What all share (assay): growth of human tumour cells (NCI), 48 h
Test [1] relates to SW-620.
Test [2] concerns SK-OV-3.
The subject of test [3] is OVCAR-4.
The test system of test [4] is TK-10.
The test system of test [5] is UACC-62.
The subject of test [6] is LOX IMVI.
The test system of test [7] is HCT-116.
Test [8] has as its system MDA-MB-231.
The subject of test [9] is SF-268.
In test [10] the test system is RXF 393.
Test [11] deals with U-251.
The test system of test [12] is K562.
Test [13] relates to NCI-H460.
In test [14] the test system is SN12C.
For test [15], the system named is Malme-3M.
Test [16] relates to DU-145.
Test [17] has as its system 786-0.
Test [18] concerns EKVX.
Test [19] deals with MCF7.
The test system of test [20] is MDA-N.

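Briefly, cells in 96-well plates were exposed to five compound concentrations for 48 h, and endpoints were estimated by linear interpolation. GI50: concentration for 50% inhibition of growth.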 Active and inactive are the calls of the source. Rule as the data show it: active = GI50 up to about 1.1 µM and inactive = higher.

Turning to `O=C(O)CCN(CCC(=O)O)c1ccc(/C=C2\SC(=S)NC2=O)cc1`, the GI50 in test [1], in [2], in test [3], in test [4], in test [5] and in test [6] was > 100 µM (inactive) throughout. The GI50 in test [7], in test [8], in test [9], in test [10], in test [11] and in [12] was > 100 µM (inactive) each time. Moreover, the GI50 in test [13] was > 100 µM (inactive); in test [14], > 100 µM (inactive); in test [15], 1.48 µM (inactive); in [16], > 100 µM (inactive); in test [17], > 100 µM (inactive); in test [18], > 100 µM (inactive). The GI50 in test [19] is > 100 µM (inactive).
Regarding `CC(C)(C)OC(=O)NCCC(N)=S`, the GI50 in [1], in test [2], in [4], in test [5], in test [7] and in test [9] was > 100 µM (inactive) each time. The GI50 in test [10], in [11], in test [12], in [13], in [14] and in [20] was > 100 µM (inactive) throughout. In addition, the GI50 in [15], in test [16], in test [17], in [18] and in test [19] was > 100 µM (inactive) each time.
In the case of `COc1ccc(/C=C(\C#N)c2nc(N)nc(N3N=C(C)CC3(C)C)n2)c(O)c1`, the GI50 in test [2] was 26.9 µM (inactive); in [3], 15.8 µM (inactive); in test [4], 30.2 µM (inactive); in test [5], 17.4 µM (inactive); in test [7], 17.6 µM (inactive); in test [8], 17.8 µM (inactive). In addition, the GI50 in [9] was 17.2 µM (inactive); in test [10], 16.1 µM (inactive); in [11] it was 26.7 µM (inactive); in test [12], 21.3 µM (inactive); in [13], 17.3 µM (inactive); in test [14] it was 26.8 µM (inactive). Moreover, the GI50 is 14.4 µM (inactive) in test [15]; 16.7 µM (inactive) in test [16]; 16.4 µM (inactive) in test [17]; 20.5 µM (inactive) in test [18]; 18.5 µM (inactive) in test [19].
Take `CC(C)(C)OC(=O)N(CCCCNCc1ccc2ccccc2c1)CCCNCc1ccc2ccccc2c1`: the GI50 in [1] was 1.75 µM (inactive); in [2], 1.94 µM (inactive); in [3] it was 1.67 µM (inactive); in test [4] it was 1.66 µM (inactive); in [5], 1.66 µM (inactive); in test [7] it was 1.15 µM (inactive). Further, the GI50 in [8] is 1.02 µM (active); in test [9] it was 1.77 µM (inactive); in [10], 1.69 µM (inactive); in test [11], 1.89 µM (inactive); in test [12], 0.273 µM (active); in test [13], 0.736 µM (active). For the same compound, the GI50 in test [14] was 1.75 µM (inactive); in test [16], 1.69 µM (inactive); in test [17] it was 1.41 µM (inactive); in test [18], 1.56 µM (inactive); in test [19] it was 1.55 µM (inactive).
Regarding `Cc1ccc(S(=O)OC2c3ccccc3Cc3ccccc32)cc1` (stereo not given), the GI50 in test [1] is 22.5 µM (inactive); in [2], 19.5 µM (inactive); in [3], 17.8 µM (inactive); in [4], 21.1 µM (inactive); in test [5], 17.7 µM (inactive); in [6], 14.4 µM (inactive). Further, the GI50 in test [7] is 17.1 µM (inactive); in test [9], 20.7 µM (inactive); in [10] it was 13.3 µM (inactive); in test [11] it was 27.6 µM (inactive); in test [12] it was 17.7 µM (inactive); in test [13], 22.3 µM (inactive). Besides, the GI50 in [14] is 20.3 µM (inactive); in [15], 13.1 µM (inactive); in test [17] it was 21.7 µM (inactive); in test [18], 18.6 µM (inactive).
Take `COC(=O)c1ccc(C)cc1/C=C1\Cc2ccc(C)cc2C1=O`: the GI50 in test [1] is 19.5 µM (inactive); in [3], 14.4 µM (inactive); in test [4] it was 21.1 µM (inactive); in [5] it was 11.4 µM (inactive); in test [6] it was 12.9 µM (inactive); in test [7] it was 11.1 µM (inactive). Further, the GI50 in test [9] is 14.2 µM (inactive); in test [10], 14.7 µM (inactive); in test [11], 12.6 µM (inactive); in test [12] it was 6.58 µM (inactive); in [13], 40.2 µM (inactive); in test [14] it was 16.7 µM (inactive). Further, the GI50 in test [15] is 10.2 µM (inactive); in [16], 16.7 µM (inactive); in [17] it was 16.9 µM (inactive); in test [18], 26.2 µM (inactive); in test [19] it was 11.2 µM (inactive).
Consider `Cc1cc(C)c(N[S+]([O-])c2cccc(C(F)(F)F)c2)c(C)c1` (stereo not given), for which the GI50 in test [1], in test [4], in test [9], in test [10], in [11] and in test [12] was > 100 µM (inactive) throughout. The GI50 in test [13], in [14], in test [20], in test [15], in test [16] and in [17] was > 100 µM (inactive) each time. Besides, the GI50 in [19] is > 100 µM (inactive).
In the case of `O=c1n(CCCN2CCN(c3cccc(Cl)c3)CC2)nc2n1-c1ccc3ccccc3c1SC2`, the GI50 in test [1], in [2], in test [3], in test [4], in test [5] and in test [6] was > 100 µM (inactive) each time. The GI50 in test [7] is 9.46 µM (inactive); in test [10] it was > 100 µM (inactive); in test [11], > 100 µM (inactive); in [12], > 100 µM (inactive); in [13], > 100 µM (inactive); in test [14], > 100 µM (inactive). Also, the GI50 was > 100 µM (inactive) in test [20]; > 100 µM (inactive) in [16]; > 100 µM (inactive) in [17]; 99.3 µM (inactive) in [18]; > 100 µM (inactive) in test [19].
As to `Cc1ccc(Oc2ccccc2N)cc1`, the GI50 is 45.9 µM (inactive) in test [1]; > 100 µM (inactive) in [2]; 50.9 µM (inactive) in [3]; 88.1 µM (inactive) in test [4]; 60.1 µM (inactive) in [5]; 23 µM (inactive) in [6]. Moreover, the GI50 is 9.51 µM (inactive) in test [7]; 46.1 µM (inactive) in test [9]; 25.9 µM (inactive) in [10]; 4.43 µM (inactive) in test [11]; 37.8 µM (inactive) in [12]; 37.8 µM (inactive) in [13]. Further, the GI50 in test [14] is 31.7 µM (inactive); in test [15], > 100 µM (inactive); in [17], 21.2 µM (inactive); in [18], 37.5 µM (inactive).
Regarding `CN(C)CC1CCCC/C1=N/OC(=O)c1ccc(Cl)cc1` (stereo not given), the GI50 in test [1], in test [2], in test [3], in [4], in [5] and in test [6] was > 100 µM (inactive) each time. Moreover, the GI50 in test [7], in [9], in test [10], in [11], in test [12] and in test [13] was > 100 µM (inactive) throughout. Also, the GI50 in [14], in test [15], in [17] and in test [18] was > 100 µM (inactive) in each case.
For `CS(=O)(=O)CCC(N)P(=O)(O)O` (stereo not given), the GI50 in test [1], in test [2], in test [3], in [4], in test [5] and in [6] was > 100 µM (inactive) each time. For the same compound, the GI50 in test [7], in [9], in [11], in test [12], in test [13] and in [14] was > 100 µM (inactive) each time. The GI50 in test [20], in [15], in test [16], in test [17], in [18] and in [19] was > 100 µM (inactive) throughout.
Regarding `COc1cc2c(cc1OC)C(Cc1ccccc1CCCl)=NCC2`, the GI50 in test [1] is 42 µM (inactive); in [2] it was > 100 µM (inactive); in test [3], 45.6 µM (inactive); in [4], > 100 µM (inactive); in test [5], 34.2 µM (inactive); in test [7] it was 21.1 µM (inactive). Besides, the GI50 in test [8] was > 100 µM (inactive); in [9] it was 53 µM (inactive); in test [10] it was 43.7 µM (inactive); in test [11], 53.2 µM (inactive); in test [12], 30.3 µM (inactive); in [13], 21.9 µM (inactive). For the same compound, the GI50 was > 100 µM (inactive) in test [14]; > 100 µM (inactive) in test [16]; > 100 µM (inactive) in test [17]; > 100 µM (inactive) in [18]; 49.4 µM (inactive) in test [19].
